Source: ChEMBL document CHEMBL1136811, “Design of novel chimeric melanotropin-deltorphin analogues. Discovery of the first potent human melanocortin 1 receptor antagonist” (J Med Chem, 2003)

How the values were obtained:
[1] = tested on: Melanocortin receptor 1 (Xenopus laevis); experiment: Antagonistic activity towards Melanocortin 1 receptor in Xenopus frog skin using competitive binding in the presence of 500 pM of alpha-melanocyte stimulating hormone.
[2] = target: Melanocortin receptor 1 (Xenopus laevis); experiment: Agonistic activity towards Melanocortin 1 receptor in the Xenopus frog skin assay

SMILES | IC50 [1] | EC50 [2] [nM]
CC(C)[C@H](NC(=O)[C@@H]1CCC(=O)NCC(=O)N[C@@H](Cc2c[nH]cn2)C(=O)N[C@H](Cc2ccccc2)C(=O)N[C@@H](CCCN=C(N)N)C(=O)N[C@@H](Cc2c[nH]c3ccccc23)C(=O)N1)C(=O)N[C@H](C(=O)NCC(N)=O)C(C)C | Not Active | 510
CC(C)[C@H](NC(=O)[C@@H]1CCC(=O)NCCCCCC(=O)N[C@@H](Cc2c[nH]cn2)C(=O)N[C@@H](Cc2ccccc2)C(=O)N[C@@H](CCCN=C(N)N)C(=O)N[C@@H](Cc2c[nH]c3ccccc23)C(=O)N1)C(=O)N[C@H](C(=O)NCC(N)=O)C(C)C | Not Active | > 10000
CC(C)[C@H](NC(=O)[C@@H]1CCC(=O)NCCCCCC(=O)N[C@@H](Cc2c[nH]cn2)C(=O)N[C@H](Cc2ccccc2)C(=O)N[C@@H](CCCN=C(N)N)C(=O)N[C@@H](Cc2c[nH]c3ccccc23)C(=O)N1)C(=O)N[C@H](C(=O)NCC(N)=O)C(C)C | Not Active | 23
CC(C)[C@H](NC(=O)[C@@H]1CCC(=O)NCCCC(=O)N[C@@H](Cc2c[nH]cn2)C(=O)N[C@@H](Cc2ccccc2)C(=O)N[C@@H](CCCN=C(N)N)C(=O)N[C@@H](Cc2c[nH]c3ccccc23)C(=O)N1)C(=O)N[C@H](C(=O)NCC(N)=O)C(C)C | Not Active | 2700
CC(C)[C@H](NC(=O)[C@@H]1CCC(=O)NCCC(=O)N[C@@H](Cc2c[nH]cn2)C(=O)N[C@H](Cc2ccccc2)C(=O)N[C@@H](CCCN=C(N)N)C(=O)N[C@@H](Cc2c[nH]c3ccccc23)C(=O)N1)C(=O)N[C@H](C(=O)NCC(N)=O)C(C)C | Not Active | –
CC(C)[C@H](NC(=O)[C@@H]1CCC(=O)NCCC(=O)N[C@@H](Cc2cnc[nH]2)C(=O)N[C@H](Cc2ccccc2)C(=O)N[C@@H](CCCNC(=N)N)C(=O)N[C@@H](Cc2c[nH]c3ccccc23)C(=O)N1)C(=O)N[C@H](C(=O)NCC(N)=O)C(C)C | – | 31
CC(C)[C@H](NC(=O)[C@@H]1CCC(=O)NCC(=O)N2CCC[C@H]2C(=O)N[C@H](Cc2ccccc2)C(=O)N[C@@H](CCCN=C(N)N)C(=O)N[C@@H](Cc2c[nH]c3ccccc23)C(=O)N1)C(=O)N[C@H](C(=O)NCC(N)=O)C(C)C | – | > 10000
CC(C)[C@H](NC(=O)[C@@H]1CCC(=O)N[C@@H](Cc2c[nH]cn2)C(=O)N[C@H](Cc2ccc3ccccc3c2)C(=O)N[C@@H](CCCN=C(N)N)C(=O)N[C@@H](Cc2c[nH]c3ccccc23)C(=O)N1)C(=O)N[C@H](C(=O)NCC(N)=O)C(C)C | Not Active | 60
CC(C)[C@H](NC(=O)[C@@H]1CCC(=O)NCCC(=O)N[C@@H](Cc2c[nH]cn2)C(=O)N[C@H](Cc2ccc3ccccc3c2)C(=O)N[C@@H](CCCN=C(N)N)C(=O)N[C@@H](Cc2c[nH]c3ccccc23)C(=O)N1)C(=O)N[C@H](C(=O)NCC(N)=O)C(C)C | Not Active | 2
CC(C)[C@H](NC(=O)[C@@H]1CCC(=O)NCCCC(=O)N[C@@H](Cc2c[nH]cn2)C(=O)N[C@H](Cc2ccccc2)C(=O)N[C@@H](CCCN=C(N)N)C(=O)N[C@@H](Cc2c[nH]c3ccccc23)C(=O)N1)C(=O)N[C@H](C(=O)NCC(N)=O)C(C)C | Not Active | 313
CC(C)[C@H](NC(=O)[C@@H]1CCC(=O)N[C@@H](Cc2cnc[nH]2)C(=O)N[C@@H](Cc2ccccc2)C(=O)N[C@@H](CCCNC(=N)N)C(=O)N[C@@H](Cc2c[nH]c3ccccc23)C(=O)N1)C(=O)N[C@H](C(=O)NCC(N)=O)C(C)C | – | > 10000
CC(C)[C@H](NC(=O)[C@@H]1CCC(=O)NCCCC(=O)N[C@@H](Cc2c[nH]cn2)C(=O)N[C@H](Cc2ccc3ccccc3c2)C(=O)N[C@@H](CCCN=C(N)N)C(=O)N[C@@H](Cc2c[nH]c3ccccc23)C(=O)N1)C(=O)N[C@H](C(=O)NCC(N)=O)C(C)C | Not Active | –
CC(C)[C@H](NC(=O)[C@@H]1CCC(=O)NCCCC(=O)N[C@@H](Cc2cnc[nH]2)C(=O)N[C@H](Cc2ccc3ccccc3c2)C(=O)N[C@@H](CCCNC(=N)N)C(=O)N[C@@H](Cc2c[nH]c3ccccc23)C(=O)N1)C(=O)N[C@H](C(=O)NCC(N)=O)C(C)C | – | 23
CC(C)[C@H](NC(=O)[C@@H]1CCC(=O)NCC(=O)N[C@@H](Cc2c[nH]cn2)C(=O)N[C@H](Cc2ccc3ccccc3c2)C(=O)N[C@@H](CCCN=C(N)N)C(=O)N[C@@H](Cc2c[nH]c3ccccc23)C(=O)N1)C(=O)N[C@H](C(=O)NCC(N)=O)C(C)C | Not Active | 60
CC(C)[C@H](NC(=O)[C@@H]1CCC(=O)N2CCC[C@H]2C(=O)N[C@H](Cc2ccc3ccccc3c2)C(=O)N[C@@H](CCCN=C(N)N)C(=O)N[C@@H](Cc2c[nH]c3ccccc23)C(=O)N1)C(=O)N[C@H](C(=O)NCC(N)=O)C(C)C | – | > 10000
CC(C)[C@H](NC(=O)[C@@H]1CCC(=O)NCC(=O)N2CCC[C@H]2C(=O)N[C@H](Cc2ccc3ccccc3c2)C(=O)N[C@@H](CCCN=C(N)N)C(=O)N[C@@H](Cc2c[nH]c3ccccc23)C(=O)N1)C(=O)N[C@H](C(=O)NCC(N)=O)C(C)C | – | > 10000
CC(C)[C@H](NC(=O)[C@@H]1CCC(=O)N[C@@H](Cc2c[nH]cn2)C(=O)N[C@H](Cc2ccccc2)C(=O)N[C@@H](CCCN=C(N)N)C(=O)N[C@@H](Cc2c[nH]c3ccccc23)C(=O)N1)C(=O)N[C@H](C(=O)NCC(N)=O)C(C)C | – | 825
CC(C)[C@H](NC(=O)[C@@H]1CCC(=O)NCC(=O)N[C@@H](Cc2cnc[nH]2)C(=O)N[C@@H](Cc2ccccc2)C(=O)N[C@@H](CCCNC(=N)N)C(=O)N[C@@H](Cc2c[nH]c3ccccc23)C(=O)N1)C(=O)N[C@H](C(=O)NCC(N)=O)C(C)C | Not Active | 5200
CC(C)[C@H](NC(=O)[C@@H]1CCC(=O)NCC(=O)N[C@@H](Cc2cncn2COCc2ccccc2)C(=O)N[C@H](Cc2ccccc2)C(=O)N[C@@H](CCCN=C(N)N)C(=O)N[C@@H](Cc2c[nH]c3ccccc23)C(=O)N1)C(=O)N[C@H](C(=O)NCC(N)=O)C(C)C | – | > 10000
